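48-hour exposure; five concentrations; linearly interpolated endpoints. The concentration for 50% growth inhibition is given as GI50. TGI is the concentration that stops growth completely.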
Assays:
Assay in all cases: inhibition of tumour cell growth, NCI panel, 48 h
[1] = test system: HT29 colon
[2] = test system: SK-MEL-5 melanoma
[3] = test system: NCI/ADR-RES ovarian
[4] = test system: OVCAR-4 ovarian
[5] = test system: SK-MEL-2 melanoma
[6] = test system: SR leukemia
[7] = test system: SW-620 colon
[8] = test system: IGROV1 ovarian
[9] = test system: MCF7 breast
[10] = test system: SF-539 CNS

Row | SMILES | TGI [1] [µM] | TGI [2] [µM] | TGI [3] [µM] | TGI [4] [µM] | TGI [5] [µM] | TGI [6] [µM] | TGI [7] [µM] | TGI [8] [µM] | TGI [9] [µM] | TGI [10] [µM] | GI50 [3] [µM] | GI50 [10] [µM] | GI50 [5] [µM]
1 | Cn1c(=O)c2c(nc3n2CCC(=O)N3CCCCl)n(C)c1=O | > 100 | > 100 | > 100 | > 100 | > 100 | > 100 | > 100 | > 100 | – | – | – | – | –
2 | CCCCCCCCCCCCCCCCNCC(O)CN (stereo not drawn) | 4.44 | 27 | 4.72 | 12.1 | 36.2 | – | 3.17 | 18.9 | 6.47 | 4.72 | – | – | –
3 | Cn1cc(-c2nc(-c3c[nH]c4ccncc34)cs2)c2ccccc21 | – | – | 4.02 | – | 3.51 | – | – | – | – | 3.26 | 1.99 | 1.78 | 1.8
4 | Nc1ncnc2c1ncn2CCCC(c1ccccc1)P(=O)(O)O (stereo not drawn) | > 100 | > 100 | – | – | > 100 | > 100 | > 100 | > 100 | – | > 100 | – | – | –
5 | C=C1C2C[C@@H]3OC4CC5O[C@]6(CC5OC4C(C)C3OC(=O)CC3CC[C@@H]4OC5C7OC8C[C@](CCC9CC(=C)[C@H](CCC(C[C@H]1C)O2)O9)(OC7C4O3)O[C@@H]85)C[C@@H]1O[C@@]2(CC(C)[C@@H]3OC(CC(=O)CCO)C(O)C[C@@H]3O2)CC(C)[C@@H]1O6 (stereo partly drawn) | – | 0.00259 | – | < 0.001 | < 0.001 | 1.24 | 1.32 | 1.37 | – | < 0.001 | – | – | –
6 | CC(=O)Oc1c2c(c(OC(C)=O)c3c1n(C(C)=O)c1ccccc1n3C(C)=O)n(C(C)=O)c1ccccc1n2C(C)=O | 13 | 39 | – | 40.5 | 24 | 7.69 | 5.67 | – | – | 30.8 | – | – | –
7 | C[N+](C)(C)CCOC(=O)/C=C/c1cnc[nH]1 | > 500 | > 500 | > 500 | > 500 | > 500 | – | > 500 | > 500 | > 500 | > 500 | – | – | –
8 | N=c1n(CC(=O)NC23CC4CC(CC(C4)C2)C3)c2ccccc2n1CC(=O)NC12CC3CC(CC(C3)C1)C2 | 3.21 | 3.24 | – | 3.38 | 30.9 | 4.51 | 3 | 3.1 | – | 3.36 | – | – | –
9 | C[N+](C)=c1ccc2nc3c(ccc4ccccc43)oc-2c1 | 29.6 | 27.5 | – | 26.3 | 36.6 | > 100 | 10.5 | 17.2 | – | 32.2 | – | – | –
10 | CCOC(=O)CCC(NC(=O)c1ccc(Nc2nc3cc(C(F)(F)F)ccc3nc2C(=O)OCC)cc1)C(=O)OCC (stereo not drawn) | 18.7 | 93 | 29.7 | – | 28.8 | > 100 | 81.6 | 43.5 | – | 25.2 | – | – | –
11 | Nc1ncnc2c1sc(=S)n2-c1ccccc1 | > 100 | > 100 | – | > 100 | > 100 | > 100 | > 100 | > 100 | – | > 100 | – | – | –
12 | N#CNC(=NCc1ccccc1)NCCc1c[nH]c2ccccc12 | > 100 | 83.3 | – | > 100 | – | > 100 | > 100 | > 100 | – | > 100 | – | – | –
13 | O=C(NC12CC3CC(CC(C3)C1)C2)C(=O)c1c[nH]c2ccc(Br)cc12 | 14.4 | > 100 | – | 35.5 | > 100 | 29.6 | > 100 | > 100 | – | 51.3 | – | – | –
14 | CCNC(=O)NNc1ncnc2c1c(-c1ccc(Cl)cc1)cn2-c1ccc(C)cc1 | 34 | 28 | 38.4 | 40.8 | 42.2 | 43.3 | 45 | 37.7 | – | 33.2 | – | – | –
15 | COc1ccc(C2S/C(=C\c3cccc(OC)c3)C(=O)N2NC(=O)Cc2ccccc2)cc1 (stereo not drawn) | > 100 | > 100 | – | > 100 | > 100 | > 100 | > 100 | > 100 | – | > 100 | – | – | –
16 | CCCc1n[nH]c(=O)n1N1C(=O)C=CC1=O | – | > 100 | – | > 100 | > 100 | > 100 | – | > 100 | > 100 | > 100 | – | – | –
17 | NC(=O)COc1c(Br)cc(Br)cc1Br | > 100 | > 100 | – | > 100 | > 100 | > 100 | – | – | – | > 100 | – | – | –
18 | COC1=CC(=O)C2C(C1=O)[C@@H]1c3ccccc3OC(C)(C)[C@H]21 (stereo partly drawn) | 99.4 | 74 | – | 32.4 | 71.2 | – | 48 | – | – | 58.3 | – | – | –
19 | Clc1ccc2nc3n[nH]c(Cl)c3nc2c1 | > 100 | 97.8 | > 100 | > 100 | > 100 | – | > 100 | – | > 100 | > 100 | – | – | –
20 | Brc1c2nc3ccccc3nc2n2ccc3ccccc3c12 | – | > 100 | – | > 100 | > 100 | > 100 | > 100 | > 100 | – | > 100 | – | – | –
21 | N=S(=O)(c1ccccc1)c1ccccc1 | – | > 100 | – | > 100 | > 100 | > 100 | > 100 | > 100 | – | > 100 | – | – | –

Reference: PubChem BioAssay (NCI)
